# Reference: US20170003277A1 (priority 2015, published 2017)
# Key:
# mouse splenocytes = experiment: Immunological cell type enrichment for genes modulated by GA in mouse splenocytes; type: cell-based; parameters: Score: scale not given here
# Excerpt: Genome-wide expression profiles in cells from three different datasets in two different species (human, mouse) were studied. LIMMA was utilized to identify a genome-wide list of differentially expressed genes induced by GA in the primed and ex vivo stimulated mouse splenocytes, as well as in the THP-1 human monocyte cell line. Repeated-measures ANOVA was utilized to find a genome-wide list of genes modulated by GA in treated MS patients. Advanced enrichment algorithms were then applied to elucidate the pathways and cell types modulated by GA.
# In addition to the shared induced effects discussed above, each system and platform clearly captured different aspects of GA's impact on the immune system. […] In human PBMCs, genes associated with immune cell types were modulated early in treatment (by month 3), including certain cell types affected in prior systems, but also distinct cell types, such as megakaryocytes and myeloid progenitors (Table 11).
# [1] = system: THP-1 human monocyte cell line; experiment: Luminex secreted cytokines and chemokines from THP-1 cells, 24 hours, Polimunol or Probioglat vs Copaxone (Example 13); type: cell-based; settings: mannitol control
# Procedure: To evaluate effects of Copaxone at the protein level, and assess the extent to which differences observed at the mRNA level (using micaroarry and qRT-PCR) were further consistent with effects observed at the level of the translated proteins, levels of 42 secreted cytokines and chemokines were measured using Luminex technology, analyzing the supernatant of THP-1 cells (human monocyte cell line) stimulated for 24 hours with Copaxone, FOGA, or mannitol control.
# Measurements were also undertaken at the protein level, in order to assess the biological relevance of the observed gene expression differences. Levels of a panel of secreted cytokines and chemokines were measured via Luminex from THP-1 cells stimulated with branded GA, Polimunol, or Probioglat.
# Cells from the THP-1 human monocyte cell line were incubated with branded GA, FOGA (Polimunol or Probioglat), or vehicle control (mannitol) for 24 hours. This time point was chosen in order to reflect translation of mRNA expression patterns observed in the same study design at 6 hours post stimulation. Supernatants were collected and assayed for the concentration of selected proteins using a Luminex assay. A total of 5 biological replicates per condition were utilized.
# Data (concentrations in pg/mL) were compared using a two-sided t-test with equal variance, and corrected for multiple hypothesis testing using Benjamini-Hochberg correction. […]
# [2] = Level of Copaxone in THP-1 cell culture medium over time; type: physicochemical; settings: THP-1 culture medium, over 24 hours; 50 μg/mL spiked
# [3] = system: mouse splenocytes, THP-1 human monocyte cell line, PBMCs from MS patients; settings: prior study (ACTRIMS-ECTRIMS 2014, P282); cited from earlier work
# [4] = B.GC.Sp.rnk, Upregulated (top 20 results)
# [5] = DC.103.11b..LuLN.rnk, Downregulated (top 20 results)
# [6] = DC.103.11b..PolyIC.Lu.rnk, Upregulated (top 20 results)
# [7] = DC.103.11b.24..Lu.rnk, Upregulated (top 20 results)
# [8] = DC.8.4.11b..SLN.rnk, Downregulated (top 20 results)
# [9] = DC.Ilhilang.103.11b..SLN.rnk, Downregulated (top 20 results)
# [10] = DC.Ilhilang.103.11blo.SLN.rnk, Downregulated (top 20 results)
# [11] = DC.LC.Sk.rnk, Upregulated (top 20 results)
# [12] = GN.Arth.BM.rnk, Downregulated (top 20 results)
# [13] = GN.Arth.SynF.rnk, Downregulated (top 20 results)
# [14] = GN.BI.rnk, Downregulated (top 20 results)
# [15] = GN.BM.rnk, Downregulated (top 20 results)
# [16] = GN.Thio.PC.rnk, Downregulated (top 20 results)
# [17] = GN.UrAc.PC.rnk, Downregulated (top 20 results)
# [18] = Mo.6C.Il..BM.rnk, Downregulated (top 20 results)
# [19] = Mo.6C.Ilint.BI.rnk, Downregulated (top 20 results)
# [20] = NK.H..MCMV1.Sp.rnk, Upregulated (top 20 results)
# [21] = NK.MCMV1.Sp.rnk, Upregulated (top 20 results)
# [22] = SC.CDP.BM.rnk, Downregulated (top 20 results)
# [23] = SC.GMP.BM.rnk, Downregulated (top 20 results)
# [24] = SC.MDP.BM.rnk, Downregulated (top 20 results)
# [25] = SC.MEP.BM.rnk, Upregulated (top 20 results)
# [26] = T.4FP3.25..AA.rnk, Upregulated (top 20 results)
# [27] = T.4SP24int.Th.rnk, Downregulated (top 20 results)
# [28] = T.8Eff.Sp.OT1.12hr.LisOva.rnk, Upregulated (top 20 results)
# [29] = T.8Eff.Sp.OT1.24hr.LisOva.rnk, Upregulated (top 20 results)
# [30] = T.8Eff.Sp.OT1.48hr.LisOva.rnk, Upregulated (top 20 results)
# [31] = T.8Nve.Sp.OT1.rnk, Downregulated (top 20 results)
# [32] = T.DPbl.Th.rnk, Upregulated (top 20 results)
# [33] = T.ISP.Th.rnk, Upregulated (top 20 results)
# [34] = Tgd.vg2.24ahi.e17.Th.rnk, Upregulated (top 20 results)
# [35] = Tgd.vg3.24alo.e17.Th.rnk, Upregulated (top 20 results)
# [36] = preB.FrC.BM.rnk, Upregulated (top 20 results)
# [37] = preT.DN3B.Th.rnk, Upregulated (top 20 results)
# [38] = preT.DN3.4.Th.rnk, Upregulated (top 20 results)
# [39] = proB.CLP.BM.rnk, Downregulated (top 20 results)
# [40] = proB.CLP.FL.rnk, Downregulated (top 20 results)
# [41] = proB.FrA.FL.rnk, Upregulated (top 20 results)
# [42] = proB.FrBC.FL.rnk, Upregulated (top 20 results)
substance,measurement,setting,value
glatiramer acetate [Copaxone®],Score,mouse splenocytes; [4],602.5
same,p.val,mouse splenocytes; [4],1.01E−12
same,Score,mouse splenocytes; [5],1152
same,p.val,mouse splenocytes; [5],2.47E−06
same,Score,mouse splenocytes; [6],705
same,p.val,mouse splenocytes; [6],1.44E−14
same,Score,mouse splenocytes; [7],738.3
same,p.val,mouse splenocytes; [7],8.91E−12
same,Score,mouse splenocytes; [8],1117
same,p.val,mouse splenocytes; [8],1.86E−07
same,Score,mouse splenocytes; [9],1151
same,p.val,mouse splenocytes; [9],9.94E−08
same,Score,mouse splenocytes; [10],1112
same,p.val,mouse splenocytes; [10],5.07E−08
same,Score,mouse splenocytes; [11],709.9
same,p.val,mouse splenocytes; [11],2.89E−15
same,Score,mouse splenocytes; [12],1218
same,p.val,mouse splenocytes; [12],0
same,Score,mouse splenocytes; [13],1160
same,p.val,mouse splenocytes; [13],2.72E−11
same,Score,mouse splenocytes; [14],1185
same,p.val,mouse splenocytes; [14],6.66E−15
same,Score,mouse splenocytes; [15],1212
same,p.val,mouse splenocytes; [15],1.11E−16
same,Score,mouse splenocytes; [16],1197
same,p.val,mouse splenocytes; [16],6.39E−14
same,Score,mouse splenocytes; [17],1145
same,p.val,mouse splenocytes; [17],5.87E−14
same,Score,mouse splenocytes; [18],1095
same,p.val,mouse splenocytes; [18],1.71E−06
same,Score,mouse splenocytes; [19],1107
same,p.val,mouse splenocytes; [19],1.62E−05
same,Score,mouse splenocytes; [20],770.8
same,p.val,mouse splenocytes; [20],7.11E−15
same,Score,mouse splenocytes; [21],793.3
same,p.val,mouse splenocytes; [21],1.51E−14
same,Score,mouse splenocytes; [22],1078
same,p.val,mouse splenocytes; [22],0
same,Score,mouse splenocytes; [23],1341
same,p.val,mouse splenocytes; [23],1.56E−05
same,Score,mouse splenocytes; [24],1206
same,p.val,mouse splenocytes; [24],1.56E−05
same,Score,mouse splenocytes; [25],641.2
same,p.val,mouse splenocytes; [25],0
same,Score,mouse splenocytes; [26],697.6
same,p.val,mouse splenocytes; [26],2.76E−11
same,Score,mouse splenocytes; [27],1040
same,p.val,mouse splenocytes; [27],0
same,Score,mouse splenocytes; [28],683
same,p.val,mouse splenocytes; [28],0
same,Score,mouse splenocytes; [29],661.8
same,p.val,mouse splenocytes; [29],5.97E−14
same,Score,mouse splenocytes; [30],587.7
same,p.val,mouse splenocytes; [30],0
same,Score,mouse splenocytes; [31],1095
same,p.val,mouse splenocytes; [31],0
same,Score,mouse splenocytes; [32],659.3
same,p.val,mouse splenocytes; [32],0
same,Score,mouse splenocytes; [33],584.9
same,p.val,mouse splenocytes; [33],0
same,Score,mouse splenocytes; [34],620
same,p.val,mouse splenocytes; [34],9.88E−13
same,Score,mouse splenocytes; [35],620.8
same,p.val,mouse splenocytes; [35],2.72E−11
same,Score,mouse splenocytes; [36],620.2
same,p.val,mouse splenocytes; [36],0
same,Score,mouse splenocytes; [37],568
same,p.val,mouse splenocytes; [37],1.64E−10
same,Score,mouse splenocytes; [38],560.7
same,p.val,mouse splenocytes; [38],2.96E−10
same,Score,mouse splenocytes; [39],1181
same,p.val,mouse splenocytes; [39],1.35E−06
same,Score,mouse splenocytes; [40],1115
same,p.val,mouse splenocytes; [40],0
same,Score,mouse splenocytes; [41],578.6
same,p.val,mouse splenocytes; [41],7.17E−11
same,Score,mouse splenocytes; [42],595.3
same,p.val,mouse splenocytes; [42],0
same,CCL2 secreted level relative to control,[1],not modulated
same,Copaxone concentration in cell culture medium,[2],44 to 52 µg/mL
same,Genes modulated by Copaxone in both mouse splenocyte and THP-1 systems,[3],"1,378"
same,Genes modulated by Copaxone only in THP-1 cells,[3],"2,121"
same,Genes modulated by Copaxone only in splenocytes,[3],"6,691"
